Six compounds from US5580904A, “Formamido and carboxyamido compounds which can be retained in brain” (Drug Delivery System Institute, Ltd., priority 1992, dated 1996) can be followed below.

Structures can show the parent of a compound that is named as a salt. Where two headings read alike, the source gives them in different places.

The format of this data set is in vivo. The note with it: 5 mg/kg on the basis of DOPA, into the femoral vein, SD rats. The method, then:
The distribution and residence in brain of the compounds according to the present invention were evaluated as follows.
Blood samples were taken out from abdominal aorta after a certain period of […]. Immediately after the exsanguination, whole brain was removed. Experiments were carried out with 3 rats at each blood sampling point.
The DOPA concentration in the whole brain was determined in accordance with the method "New Biochemical Experiment Course, Vol. 11, Neurobiochemistry,p. 289-290 (edited by Biochemical Society, Japan, published by Tokyo Kagaku-Dojin, 1990)." As the controls, the Boc-eliminated Compound D and DOPA were administered in the same manner as above to determine the DOPA concentration.

Regarding `CC(=C(CCOC(=O)[C@@H](N)Cc1ccc(OC(=O)C(C)(C)C)c(OC(=O)C(C)(C)C)c1)SSC(C)C)N(C)C=O` [3 (b)], the “Area under the curve of concentration (AUC) of DOPA in brain” value (from here on “Area under the curve of concentration”) (Time 0-4 hr) amounted to 82476 ng·min/g.

As for `C/C(=C(\CCOC(=O)C(N)Cc1ccc(OC(=O)C(C)(C)C)c(OC(=O)C(C)(C)C)c1)SSCC1CCCO1)N(C=O)Cc1cnc(C)nc1N` (stereo not drawn) [29 (b), N-[(4-amino-2-methyl-5-pyrimidyl)methyl]-N-[4-[2-amino-3-(3,4-dipivaloyloxyphenyl)propionyl]oxy-1-methyl-2-[(tetrahydrofurfuryl)dithio]-1-butenyl]formamide], the “Area under the curve of concentration” value stood at 6659 ng·min/g (Time 0-2 hr) and 7151 ng·min/g (Time 0-4 hr).

As to `C=CCSS/C(CCOC(=O)C(N)Cc1ccc(OC(=O)C(C)(C)C)c(OC(=O)C(C)(C)C)c1)=C(/C)N(C=O)Cc1cnc(C)nc1N` (stereo not drawn) [35 (b), N-[(4-amino-2-methyl-5-pyrimidyl)methyl]-N-[4-[2-amino-3-(3,4-dipivaloyloxyphenyl)propionyl]oxy-1-methyl-2-[(2-propenyl)dithio]-1-butenyl]formamide], the “Area under the curve of concentration” value (Time 0-4 hr) is 10626 ng·min/g.

On to `CC(C)(C)C(=O)Oc1ccc(C[C@H](N)C(=O)O)cc1OC(=O)C(C)(C)C` [Boc-elimination of Compound D, reference compound], for which the “Area under the curve of concentration” value (Time 0-2 hr) turned out to be 3169 ng·min/g and the “Area under the curve of concentration” value (Time 0-4 hr) stood at 3277 ng·min/g.

Regarding `N[C@@H](Cc1ccc(O)c(O)c1)C(=O)O` [DOPA, 3,4-dihydroxy phenylalanine, reference compound], the “Area under the curve of concentration” value (Time 0-2 hr) worked out at 6035 ng·min/g and the “Area under the curve of concentration” value (Time 0-4 hr) was found to be 6035 ng·min/g.

For the compound `C/C(=C(\CCOC(=O)C(N)Cc1ccc(OC(=O)C(C)(C)C)c(OC(=O)C(C)(C)C)c1)SSC(C)C)N(C=O)Cc1cnc(C)nc1N` (stereo not drawn) [Example 30 (b), N-[(4-amino-2-methyl-5-pyrimidyl)methyl]-N-[4-[2-amino-3-(3,4-dipivaloyloxyphenyl)propionyl]oxy-1-methyl-2-[(2-propyl)dithio]-1-butenyl]formamide hydrochloride], the “Area under the curve of concentration” value (Time 0-2 hr) is 34595 ng·min/g.
